Consider two compounds from patent US9545438B2, “Determination of antigenicity of an inactivated virus” (Universiteit Gent, priority 2008, dated 2017).

One assay deals with MARC-145 cells. Kind of assay: Virus titration of treated PRRSV on MARC-145 cells (inactivation curve). Type of assay: cell-based. As to conditions: four hours at 37° C.
The next assay has as its system macrophages. The experiment in a line: Attachment, internalization, fusion and replication of inactivated PRRSV in macrophages by immunostaining and confocal microscopy. It counts as cell-based, porcine. Particulars: 1 hpi. An excerpt: The European strain Lelystad virus (LV) of PRRSV (Wensvoort et al., 1991) grown on MARC-145 cells (5th passage) was used for inactivation. MARC-145 cells cultivated in minimum Eagle's medium (MEM) with 5% FCS, 1% glutamine, 1% penicillin-streptomycin and 1% kanamycin were used for LV production and titration of inactivated virus. Attachment and internalization of the inactivated virus was investigated in macrophages that where cultivated in medium containing RPMI 1640, 10% FCS, 1% penicillin-streptomycin, 1% kanamycin, 1% gentamycin, 1% tylosin, 1% glutamine, 1% nonessential amino acids and 1% sodium pyruvate for 24 hours before inoculation. When CHO cells were used, the cells were cultivated in F12 with 10% FCS, 1% penicillin-streptomycin, 1% kanamycin, 1% glutamine, and 1% sodium pyruvate and were transfected with sialoadhesin. As the macrophages, the CHO cells were also cultivated 24 hours before inoculation. […]
Macrophages, CHO^Sn or CHO^Sn-CD163 cells were seeded at 200,000 cells/ml in a 24-well plate with insert. […] The virus particles were counted with a confocal microscope.

Assay [1] has as its system CHO^Sn-CD163 cell line IC5. Kind of assay: Binding, internalization, fusion and infection in CHO^Sn-CD163 cell line IC5. It counts as cell-based, Chinese Hamster. The method, then: (§1) Macrophages or CHO cells (including CHO^Sn and CHO^Sn-CD163 cells, i.e., the CHO cells expressing sialoadhesin and CD163 deposited on May 14, 2008 at the Belgian Coordinated Collections of Microorganisms as CHO^Sn/CD163 IC5; CHO^Sn/CD163 ID9 and CHO^Sn/CD163 IF3 with the respective accession numbers (LMBP 6677CB, LMBP 6678CB, and […]) were incubated for one hour at 37° C. with the treated PRRSV and fixed with methanol. Then the capsid protein was stained with a primary antibody P3/27 and a secondary antibody goat-anti-mouse FITC. Confocal analysis was performed to determine the amount of internalized PRRSV.
(§2) Macrophages, CHO^Sn or CHO^Sn-CD163 cells were seeded at 200,000 cells/ml in a 24-well plate with insert. After two days, the cells were inoculated with wild-type Lelystad Virus (LV) grown on MARC-145 cells and inactivated LV grown on MARC-145 cells. The cells were fixed with methanol after one hour at 4° C. (binding; 0 hpi), one hour at 37° C. (internalization), five hours at 37° C. […] (infection) and 24 hours at 37° C. (infection). The virus was stained with a primary antibody P3/27 (anti-capsid) and a secondary antibody goat-anti-mouse FITC. The virus particles were counted with a confocal microscope.

The test system of assay [2] is CHO^Sn-CD163 cell line ID9. Kind of assay: Binding, internalization, fusion and infection in CHO^Sn-CD163 cell line ID9. It counts as cell-based, Chinese Hamster. The method, then:
as §1, §2

Assay [3] deals with CHO^Sn-CD163 cell line IF3. The experiment in a line: Binding, internalization, fusion and infection in CHO^Sn-CD163 cell line IF3. It counts as cell-based, Chinese Hamster. The procedure:
as §1, §2

Description for MARC-145 cells: Formaldehyde was then removed by ultracentrifugation. Inactivation with glutaraldehyde was performed with purified virus (10^7 TCID50/ml) that was incubated for four hours at 37° C. with different concentrations (0-0.005-0.05-0.5-5 or 50 ng/ml) glutaraldehyde (Sigma) (Darnell et al., 2004). Glutaraldehyde was removed by ultracentrifugation afterwards. For inactivation with 2,2-dithiodipyridine (AT-2), purified virus (10^7 TCID50/ml) was incubated for four hours at 37° C. with different concentrations (0-10-30-100-300 or 1000 μM) AT-2 (Aldrich) (Rossio et al., 1998; Chertova et al., 2003). Afterwards, AT-2 was removed by ultracentrifugation. For inactivation by changing the pH, the pH was adjusted with HCl of 32% to pH2 and with NaOH to pH12. Purified virus (10^7 TCID50/ml) was incubated for several hours at a pH2 or at a pH12. After incubation, the pH was neutralized (Darnell et al., 2004). For inactivation of PRRSV at a certain temperature, purified virus (10^7 TCID50/ml) was incubated for several (0-6-12-24-48 or 72) hours at 37° C. […]
Virus titration was performed in a 96-well plate with a confluent monolayer of MARC-145 cells. […] After three to five days incubation at 37° C., the occurrence of cytopathic effect (CPE) was investigated and the 50% tissue culture infective dose (TCID50) could be calculated. […]

In the case of `O=CCCCC=O` [glutaraldehyde], in the assay with MARC-145 cells (0.5 ng/ml glutaraldehyde or more), the “infectious virus detected by titration” value is recorded as “no infectious virus could be detected”. Also, in the assay with macrophages (50 ng/ml glutaraldehyde), the internalization in macrophages entry is “no longer able to internalize”. In addition, in assay [1], the “Binding (particles counted at 0 hpi)” value worked out at 1 particles, the “Fusion (particles counted at 5 hpi)” value is 0 particles, the “Infection 12 hpi (%)” value came out at 0% and the “Infection 24 hpi (%)” value worked out at 0%. Further, the “Internalization (particles counted at 1 hpi)” value in assay [1] was 0 particles. In assay [2], the “Binding (particles counted at 0 hpi)” value came out at 0 particles, the “Fusion (particles counted at 5 hpi)” value is reported as 0 particles, the “Infection 12 hpi (%)” value was 0% and the “Infection 24 hpi (%)” value is reported as 0%. For the same compound, in assay [2], the “Internalization (particles counted at 1 hpi)” value is 0 particles. Further, in assay [3], the “Binding (particles counted at 0 hpi)” value stood at 2 particles, the “Fusion (particles counted at 5 hpi)” value was 1 particles, the “Infection 12 hpi (%)” value is listed as 0% and the “Infection 24 hpi (%)” value is 0%. Moreover, in assay [3], the “Internalization (particles counted at 1 hpi)” value came to 0 particles.

Regarding `C=O` [formaldehyde], in the assay with MARC-145 cells (lowest concentration of 10 pg/ml formaldehyde), the “infectious virus detected by titration” value is recorded as “no infectious virus detected”. Moreover, the internalization in macrophages result in the assay with macrophages (0.1 ng/ml formaldehyde) is given as “no longer able to internalize”. In assay [1], the “Binding (particles counted at 0 hpi)” value is on record as 0 particles, the “Fusion (particles counted at 5 hpi)” value is recorded as 0 particles, the “Infection 12 hpi (%)” value is given as 0% and the “Infection 24 hpi (%)” value amounted to 0%. Besides, the “Internalization (particles counted at 1 hpi)” value in assay [1] is recorded as 0 particles. Besides, in assay [2], the “Binding (particles counted at 0 hpi)” value amounted to 2 particles, the “Fusion (particles counted at 5 hpi)” value came out at 0 particles, the “Infection 12 hpi (%)” value came out at 0% and the “Infection 24 hpi (%)” value is 0%. The “Internalization (particles counted at 1 hpi)” value in assay [2] amounted to 0 particles. In assay [3], the “Binding (particles counted at 0 hpi)” value came to 1 particles, the “Fusion (particles counted at 5 hpi)” value was 1 particles, the “Infection 12 hpi (%)” value is listed as 0% and the “Infection 24 hpi (%)” value was determined as 0%. Besides, the “Internalization (particles counted at 1 hpi)” value in assay [3] came out at 0 particles.
